Measurements as given in patent US12667126B2, “Malonyl steviol glycosides and their comestible use” (Firmenich SA, priority 2020, dated 2026).

How the values were obtained:
[1] = Sensory testing as sweet modifier in SG95 base; settings: 30 ppm, seven experts, scale -5 to 5 vs reference; for sweet effect as sweet modifier: SG95 (PureCircle) base; for licorice effect as sweet modifier / sweet lingering effect as sweet modifier: SG95 base
Experimental: Compound 101 was evaluated as a sweet modifier in SG95 (PureCircle) base at 30 ppm. Seven experts were asked to compare the intensity difference between reference (SG95 base) and Compound 101 was added to the sample. The taste properties (such as sweet, licorice, sweet lingering) were evaluated on a scale of −5 to 5 (−5 denoted strong masking effect and 5 denoted strong enhancing effect, 0 being the intensity of reference).
Compound 105 was evaluated as a sweet modifier in SG95 base at 30 ppm. Seven experts were asked to compare the intensity difference between reference (SG95 base) and Compound 105 was added sample. The taste properties (such as sweet, licorice, sweet lingering) were evaluated on a scale of −5 to 5 (−5 denoted strong masking effect and 5 denoted strong enhancing effect, 0 being the intensity of reference).
Compound 104 was evaluated as a sweet modifier in SG95 base at 30 ppm. Seven experts were asked to compare the intensity difference between reference (SG95 base) and Compound 104 adding sample. The taste properties (such as sweet, licorice, sweet lingering) were evaluated on a scale of −5 to 5 (−5 denoted strong masking effect and 5 denoted strong enhancing effect, 0 being the intensity of reference).

[2] = Sensory testing: sweet capacity in water solution versus sucrose; settings: dosages 62.5 ppm and 250 ppm, ten experts, dosage for equal sweet intensity from sucrose
Experimental: Malonyl glycosides 101, 102, 104 and 105 were evaluated in water solution at two selected dosages (62.5 ppm and 250 ppm) to identify their sweet capacity. Ten experts were asked to evaluate sweet, licorice, and sweet lingering intensities on a linear scale. Then, the dosage for equal sweet intensity from sucrose was identified. Sweet capacity for each compound was calculated based on dosage difference between tested compound and sucrose.

| SMILES | sweet effect as sweet modifier [1] | licorice effect as sweet modifier [1] | sweet lingering effect as sweet modifier [1] | sweet capacity (times sweeter than sucrose) [2] |
| --- | --- | --- | --- | --- |
| C=C1C[C@@]23CC[C@H]4[C@@](C)(CCC[C@@]4(C)C(=O)O[C@@H]4O[C@H](COC(=O)CC(=O)O)[C@@H](O)[C@H](O)[C@H]4O)[C@@H]2CCC1(O[C@@H]1O[C@H](CO)[C@@H](O)[C@H](O[C@@H]2O[C@H](CO)[C@@H](O)[C@H](O)[C@H]2O)[C@H]1O[C@@H]1O[C@H](CO)[C@@H](O)[C@H](O)[C@H]1O)C3 [Compound 101, 6′-O-malonyl Rebaudioside A] | sweet enhancement effect | better performance in licorice and sweet lingering masking than Rebaudioside A | better performance in licorice and sweet lingering masking than Rebaudioside A | about 150 times sweeter than sucrose |
| C=C1C[C@@]2(C)CC[C@H]3[C@@](C)(CCC[C@@]3(C)C(=O)O[C@@H]3O[C@H](COC(=O)CC(=O)O)[C@@H](O)[C@H](O)[C@H]3O)[C@@H]2CCC1(C)O[C@@H]1O[C@H](CO)[C@@H](O)[C@H](O)[C@H]1O[C@@H]1O[C@H](CO)[C@@H](O)[C@H](O)[C@H]1O (some centres unmarked) [Compound 102, 6′-O-malonyl stevioside] |  |  |  | about 150 times sweeter than sucrose |
| C=C1C[C@@]23CC[C@H]4[C@@](C)(CCC[C@@]4(C)C(=O)O[C@@H]4O[C@H](COC(=O)CC(=O)O)[C@@H](O)[C@H](O)[C@H]4O)[C@@H]2CCC1(O[C@@H]1O[C@H](CO)[C@@H](O)[C@H](O)[C@H]1O)C3 [Compound 104, 6′-O-malonyl rubusoside] | sweet enhancement effect | performed well on tests for licorice and lingering masking effect | performed well on tests for licorice and lingering masking effect | about 120 times sweeter than sucrose |
| C=C1C[C@@]23CC[C@H]4[C@@](C)(CCC[C@@]4(C)C(=O)O[C@@H]4O[C@H](CO)[C@@H](O)[C@H](O)[C@H]4O)[C@@H]2CCC1(O[C@@H]1O[C@H](CO)[C@@H](O)[C@H](O)[C@H]1O[C@@H]1O[C@H](COC(=O)CC(=O)O)[C@@H](O)[C@H](O)[C@H]1O)C3 [Compound 105, 6″′-O-malonyl stevioside] | sweet enhancement effect |  |  | about 100 times sweeter than sucrose |
